One may read the Ki as the dissociation constant of the complex between target and ligand, obtained from inhibition or displacement.

The target in this experiment is human recombinant PAK1-KD protein (Homo sapiens, UniProt Q13153). The experiment can be described thus: PAK1-KD (Kinase Domain) IC50 Zlyte Assay (FRET peptide substrate phosphorylation). The note with it: Z'-LYTE, Biological Example 1.
human recombinant PAK1-KD protein, sequence (Q13153 270-521 limits assumed): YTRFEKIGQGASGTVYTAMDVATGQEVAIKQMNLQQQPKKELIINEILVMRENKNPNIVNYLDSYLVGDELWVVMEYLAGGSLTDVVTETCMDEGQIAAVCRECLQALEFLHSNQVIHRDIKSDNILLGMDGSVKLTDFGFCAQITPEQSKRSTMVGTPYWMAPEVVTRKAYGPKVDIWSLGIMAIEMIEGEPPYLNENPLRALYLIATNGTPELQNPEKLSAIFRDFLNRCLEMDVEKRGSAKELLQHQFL
Source text: PAK1-KD (Kinase Domain) IC50 Zlyte Assay Protocol
Activity of human recombinant PAK1-KD protein may be assessed in vitro by assay of the phosphorylation of a FRET peptide substrate. Catalytically active human recombinant PAK1-KD protein is obtained by purification from Tini cells infected with a human PAK1-KD recombinant baculovirus expression vector.
The activity/inhibition of PAK1-KD was estimated by measuring the phosphorylation of a FRET peptide substrate (Ser/Thr19) labeled with Coumarin and Fluorescein using Z′-LYTE™ assay (Invitrogen). The peptide substrate is a consensus sequence ([sequence]) based on various PAK substrates reported in the scientific literature. […] Incubations were carried out at 22° C. in black polypropylene 384-well plates (Corning Costar).
For the compound `CNc1ncc2cc(-c3ccc(-c4cncc(C)n4)cc3Cl)c(=O)n(CCC3CCNC3=O)c2n1` (single isomer, unassigned) [Example I-102, 6-[2-Chloro-4-(6-methylpyrazin-2-yl)phenyl]-2-(methylamino)-8-[2-(2-oxopyrrolidin-3-yl)ethyl]pyrido[2,3-d]pyrimidin-7-one], the Ki turned out to be 38.1 nM.

Take `Cc1cccc(-c2ccc(-c3cc4cnc(NC5COC5)nc4n(CC[C@H]4OC[C@@H](N)CO4)c3=O)c(Cl)c2)n1` [Example I-133]: the Ki worked out at 0.9 nM.

With `CNc1ncc2cc(-c3ccc(-c4cccc(C)n4)cc3C)c(=O)n(CC(=O)N3CCNCC3)c2n1` [Example I-95, 2-(Methylamino)-6-[2-methyl-4-(6-methyl-2-pyridyl)phenyl]-8-(2-oxo-2-piperazin-1-yl-ethyl)pyrido[2,3-d]pyrimidin-7-one], the Ki was found to be 27.3 nM. For `Cc1cccc(-c2ccc(-c3cc4cnc(NC5COC5)nc4n(CCCC(N)=O)c3=O)c(C)c2)n1` [Example I-71, 4-[6-[2-Methyl-4-(6-methyl-2-pyridyl)phenyl]-2-(oxetan-3-ylamino)-7-oxo-pyrido[2,3-d]pyrimidin-8-yl]butanamide], the Ki was found to be 11.3 nM.

As to `Cc1cncc(-c2ccc(-c3cc4cnc(NC5COC5)nc4n(CCCC(N)=O)c3=O)c(Cl)c2)n1` [Example I-55, 4-[6-[2-Chloro-4-(6-methylpyrazin-2-yl)phenyl]-2-(oxetan-3-ylamino)-7-oxo-pyrido[2,3-d]pyrimidin-8-yl]butanamide], the Ki was found to be 29.8 nM. Consider `CNc1ncc2cc(-c3ccc(-c4cncc(C)n4)cc3Cl)c(=O)n(CC[C@H]3OC[C@H](N)CO3)c2n1` [Example I-177, 8-[2-(5-amino-1,3-dioxan-2-yl)ethyl]-6-[2-chloro-4-(6-methylpyrazin-2-yl)phenyl]-2-(methylamino)pyrido[2,3-d]pyrimidin-7-one], for which the Ki came out at 6.82 nM.

Consider `CCNc1ncc2cc(-c3ccc(-c4cccc(C)n4)cc3C)c(=O)n(CC(=O)N3CCNCC3)c2n1` [Example I-93, 2-(Ethylamino)-6-[2-methyl-4-(6-methyl-2-pyridyl)phenyl]-8-(2-oxo-2-piperazin-1-yl-ethyl)pyrido[2,3-d]pyrimidin-7-one], for which the Ki came to 29.1 nM. Consider `CNC(=O)CCCn1c(=O)c(-c2ccc(-c3cccc(C)n3)cc2C)cc2cnc(NC3COC3)nc21` [Example I-87, N-methyl-4-[6-[2-methyl-4-(6-methyl-2-pyridyl)phenyl]-2-(oxetan-3-ylamino)-7-oxo-pyrido[2,3-d]pyrimidin-8-yl]butanamide], for which the Ki was found to be 30.5 nM. With `CCNc1ncc2cc(-c3ccc(-c4cccc(C)n4)cc3Cl)c(=O)n(CCN3CCNCC3)c2n1` [Example I-66, 6-(2-Chloro-4-(6-methylpyridin-2-yl)phenyl)-2-(ethylamino)-8-(2-(piperazin-1-yl)ethyl)pyrido[2,3-d]pyrimidin-7(8H)-one], the Ki turned out to be 0.9 nM. The figure for `CNc1ncc2cc(-c3ccc(-c4cncc(C)n4)cc3Cl)c(=O)n(CC(=O)NCCO)c2n1` [Example I-85, 2-[6-[2-Chloro-4-(6-methylpyrazin-2-yl)phenyl]-2-(methylamino)-7-oxo-pyrido[2,3-d]pyrimidin-8-yl]-N-(2-hydroxyethyl)acetamide] is 92.9 nM; for `CCNc1ncc2cc(-c3ccc(-c4cncc(C)n4)cc3Cl)c(=O)n(CCC(N)=O)c2n1` [Example I-69, 3-[6-[2-chloro-4-(6-methylpyrazin-2-yl)phenyl]-2-(ethylamino)-7-oxo-pyrido[2,3-d]pyrimidin-8-yl]propanamide] it is 103 nM; for `CCNc1ncc2cc(-c3ccc(-c4cccc(C)n4)cc3C)c(=O)n(C3COC4(CCNC4)C3)c2n1` (stereo not shown) [Example I-122, 2-(Ethylamino)-6-[2-methyl-4-(6-methyl-2-pyridyl)phenyl]-8-(1-oxa-7-azaspiro[4.4]nonan-3-yl)pyrido[2,3-d]pyrimidin-7-one] it is 4.5 nM. Consider `CCNc1ncc2cc(-c3ccc(-c4cccc(C)n4)cc3Cl)c(=O)n(CC[C@H](O)CO)c2n1` [Example I-123, 6-[2-Chloro-4-(6-methyl-2-pyridyl)phenyl]-8-[(3S)-3,4-dihydroxybutyl]-2-(ethylamino)pyrido[2,3-d]pyrimidin-7-one], for which the Ki stood at 7.08 nM. Turning to `CNc1ncc2cc(-c3ccc(-c4cncc(C)n4)cc3Cl)c(=O)n(CCCCCN)c2n1` [Example I-138, 8-(5-aminopentyl)-6-[2-chloro-4-(6-methylpyrazin-2-yl)phenyl]-2-(methylamino)pyrido[2,3-d]pyrimidin-7-one], the Ki turned out to be 9.6 nM.

With `CCNc1ncc2cc(-c3ccc(-c4cncc(C)n4)cc3Cl)c(=O)n(C[C@H]3[C@@H]4CNC[C@@H]43)c2n1` [Example I-82, 8-((1R,5S,6R)-3-Azabicyclo[3.1.0]hexan-6-ylmethyl)-6-(2-chloro-4-(6-methylpyrazin-2-yl)phenyl)-2-(ethylamino)pyrido[2,3-d]pyrimidin-7(8H)-one], the inhibition constant (Ki) is 9.6 nM. For `CCNc1ncc2cc(-c3ccc(-c4cccc(C)n4)cc3Cl)c(=O)n(CC(=O)N3CCOCC3)c2n1` [Example I-120, 6-[2-chloro-4-(6-methyl-2-pyridyl)phenyl]-2-(ethylamino)-8-(2-morpholino-2-oxo-ethyl)pyrido[2,3-d]pyrimidin-7-one], the Ki was determined as 20.8 nM.

Regarding `Cc1cncc(-c2ccc(-c3cc4cnc(NC5COC5)nc4n(C[C@@H]4CNCCO4)c3=O)c(Cl)c2)n1` [Example I-149, 6-[2-Chloro-4-(6-methylpyrazin-2-yl)phenyl]-8-[[(2S)-morpholin-2-yl]methyl]-2-(oxetan-3-ylamino)pyrido[2,3-d]pyrimidin-7-one], the Ki turned out to be 9 nM. With `CCNc1ncc2cc(-c3ccc(-c4cccc(C)n4)cc3Cl)c(=O)n(CCS(=O)(=O)C3CNC3)c2n1` [Example I-160, 8-[2-(azetidin-3-ylsulfonyl)ethyl]-6-[2-chloro-4-(6-methyl-2-pyridyl)phenyl]-2-(ethylamino)pyrido[2,3-d]pyrimidin-7-one], the Ki came out at 10.3 nM. As to `CCNc1ncc2cc(-c3ccc(-c4cccc(C)n4)cc3C)c(=O)n(CCCC(=O)NC)c2n1` [Example I-74, 4-[2-(Ethylamino)-6-[2-methyl-4-(6-methyl-2-pyridyl)phenyl]-7-oxo-pyrido[2,3-d]pyrimidin-8-yl]-N-methyl-butanamide], the Ki came to 15.5 nM. As for `CCNc1ncc2cc(-c3ccc(-c4cncc(C)n4)cc3Cl)c(=O)n(CC(O)CN)c2n1` (stereo not shown) [Example I-24, 8-(3-amino-2-hydroxy-propyl)-6-[2-chloro-4-(6-methylpyrazin-2-yl)phenyl]-2-(ethylamino)pyrido[2,3-d]pyrimidin-7-one], the inhibition constant Ki was 27.3 nM.

Turning to `Cc1cccc(-c2ccc(-c3cc4cnc(NC(C)C)nc4n(CCN4CCNCC4)c3=O)c(Cl)c2)n1` [Example I-68, 6-(2-Chloro-4-(6-methylpyridin-2-yl)phenyl)-2-(isopropylamino)-8-(2-(piperazin-1-yl)ethyl)pyrido[2,3-d]pyrimidin-7(8H)-one], the Ki was 1.6 nM. For the compound `CNc1ncc2cc(-c3ccc(-c4csc(C)n4)cc3Cl)c(=O)n(C[C@@H]3CNCCO3)c2n1` [Example I-179, 6-[2-chloro-4-(2-methylthiazol-4-yl)phenyl]-2-(methylamino)-8-[[(2S)-morpholin-2-yl]methyl]pyrido[2,3-d]pyrimidin-7-one], the Ki came to 66.6 nM.

For `CCNc1ncc2cc(-c3ccc(-c4cncc(C)n4)cc3Cl)c(=O)n(CC[C@@H]3[C@H]4CNC[C@@H]34)c2n1` [Example I-65, 8-(2-((1R,5S,6s)-3-Azabicyclo[3.1.0]hexan-6-yl)ethyl)-6-(2-chloro-4-(6-methylpyrazin-2-yl)phenyl)-2-(ethylamino)pyrido[2,3-d]pyrimidin-7(8H)-one], the inhibition constant Ki turned out to be 14.5 nM. On to `Cc1cncc(-c2ccc(-c3cc4cnc(NC5(C)COC5)nc4n(CCCC(N)=O)c3=O)c(Cl)c2)n1` [Example I-41, 4-[6-[2-Chloro-4-(6-methylpyrazin-2-yl)phenyl]-2-[(3-methyloxetan-3-yl)amino]-7-oxo-pyrido[2,3-d]pyrimidin-8-yl]butanamide], for which the Ki came out at 31 nM. On to `CNc1ncc2cc(-c3ccc(-c4cncc(C)n4)cc3Cl)c(=O)n(CC(=O)N3CCNCC3)c2n1` [Example I-84, 6-(2-Chloro-4-(6-methylpyrazin-2-yl)phenyl)-2-(methylamino)-8-(2-oxo-2-(piperazin-1-yl)ethyl)pyrido[2,3-d]pyrimidin-7(8H)-one], for which the Ki is 59.2 nM. Then `Cc1cccc(-c2ccc(-c3cc4cnc(NC5COC5)nc4n(CC(=O)N4CCNCC4)c3=O)c(C)c2)n1` [Example I-106, 6-[2-Methyl-4-(6-methyl-2-pyridyl)phenyl]-2-(oxetan-3-ylamino)-8-(2-oxo-2-piperazin-1-yl-ethyl)pyrido[2,3-d]pyrimidin-7-one], with 54.5 nM. In the case of `CNc1ncc2cc(-c3ccc(-c4cncc(C)n4)cc3Cl)c(=O)n(CC(=O)N3CCC(O)C3)c2n1` (stereo not shown) [Example I-157, 6-[2-chloro-4-(6-methylpyrazin-2-yl)phenyl]-8-[2-(3-hydroxypyrrolidin-1-yl)-2-oxo-ethyl]-2-(methylamino)pyrido[2,3-d]pyrimidin-7-one], the Ki worked out at 44.9 nM. Regarding `Cc1cccc(-c2ccc(-c3cc4cnc(NC(C)C)nc4n(CCOCCN)c3=O)c(Cl)c2)n1` [Example I-60], the Ki amounted to 1.1 nM.

On to `CCNc1ncc2cc(-c3ccc(-c4cncc(C)n4)cc3Cl)c(=O)n(CCCCC(N)=O)c2n1` [Example I-49, 5-[6-[2-Chloro-4-(6-methylpyrazin-2-yl)phenyl]-2-(ethylamino)-7-oxo-pyrido[2,3-d]pyrimidin-8-yl]pentanamide], for which the Ki was determined as 75.3 nM.

With `CNc1ncc2cc(-c3ccc(-c4cncc(C)n4)cc3Cl)c(=O)n(CCC3OCC(N)CO3)c2n1` (stereo not shown) [Example I-37, 8-[2-(5-amino-1,3-dioxan-2-yl)ethyl]-6-[2-chloro-4-(6-methylpyrazin-2-yl)phenyl]-2-(methylamino)pyrido[2,3-d]pyrimidin-7-one], the Ki came to 7.5 nM. Then `Cc1cccc(-c2ccc(-c3cc4cnc(NC5COC5)nc4n(CC(=O)N4CCNCC4)c3=O)c(Cl)c2)n1` [Example I-94, 6-[2-Chloro-4-(6-methyl-2-pyridyl)phenyl]-2-(oxetan-3-ylamino)-8-(2-oxo-2-piperazin-1-yl-ethyl)pyrido[2,3-d]pyrimidin-7-one], with 15.9 nM.

(Values after patent US20150031674A1, “SERINE/THREONINE KINASE INHIBITORS” (GENENTECH, INC., priority 2013, published 2015).)
